Experimental data published in ChEMBL document CHEMBL3217634, “Synthesis and trypanocidal action of new adamantane substituted imidazolines” (Medchemcomm, 2013).

Legend:
[1] = Selectivity index, ratio of IC50 for rat L6 cells to IC50 for Trypanosoma brucei Lister 427; format: toxicity, cell-based; conditions: L6 cells (versus Trypanosoma brucei Lister 427), read-out: Ratio IC50
Trypanosoma brucei = experiment: Antitrypanosomal activity against Trypanosoma brucei Lister 427 after 2 days by Alamar Blue fluorescence assay; format: functional, organism-based; conditions: Lister 427, 48 h
L6 = experiment: Cytotoxicity against rat L6 cells after 6 days by Alamar Blue fluorescence assay; format: cell-based; conditions: L6, 144 h

Row | IC50 (Trypanosoma brucei) [µM] | IC90 (Trypanosoma brucei) [µM] | Structure (SMILES) | selectivity ratio [1] | IC50 (L6) [µM]
1 | 1.5 | 1.83 | CN1C=NCC1C12CC3CC(CC(C4CCCC4)(C3)C1)C2 (stereo not drawn) | 3.9 | 5.77
2 | 7.39 | 11.8 | NC1=NCC(C23CC4CC(CC(c5ccccc5)(C4)C2)C3)N1 (stereo not drawn) | – | –
3 | 2.97 | 4.51 | CC1=NCC(C23CC4CC(CC(C5CCCC5)(C4)C2)C3)N1C (stereo not drawn) | 1.3 | 3.77
4 | 16.4 | 24.2 | C1=NCC(C23CC4CC(CC(C5CCCC5)(C4)C2)C3)N1c1ccccc1 (stereo not drawn) | – | –
5 | 4.88 | 8.11 | CC1=NCC(C23CC4CC(CC(c5ccccc5)(C4)C2)C3)N1 (stereo not drawn) | – | –
6 | 2.17 | 2.63 | NC1=NCC(C23CC4CC(CC(C5CCCC5)(C4)C2)C3)N1 (stereo not drawn) | 7.9 | 17.2
7 | 1.72 | 2.35 | CN1C(N)=NCC1C12CC3CC(CC(C4CCCCC4)(C3)C1)C2 (stereo not drawn) | 4.3 | 7.39
8 | 0.65 | 0.84 | NC1=NCC(C23CC4CC(CC(C5CCCC5)(C4)C2)C3)N1C1CCCCC1 (stereo not drawn) | 5 | 3.22
9 | 11.1 | 15.5 | NC1=NCC(C23CC4CC(CC(C5CCCC5)(C4)C2)C3)N1c1ccccc1 (stereo not drawn) | – | –
10 | 1.57 | 2.42 | C1=NCC(C23CC4CC(CC(C5CCCC5)(C4)C2)C3)N1 (stereo not drawn) | 2.4 | 3.7
11 | 7.09 | 9.02 | C1=NCC(C23CC4CC(CC(c5ccccc5)(C4)C2)C3)N1 (stereo not drawn) | – | –
12 | 7.91 | 13.1 | CN1C=NCC1C12CC3CC(CC(c4ccccc4)(C3)C1)C2 (stereo not drawn) | – | –
13 | 1.65 | 2.23 | CN1C(N)=NCC1C12CC3CC(CC(C4CCCC4)(C3)C1)C2 (stereo not drawn) | 7.1 | 11.7
14 | 7.16 | 10.3 | CC1=NCC(C23CC4CC(CC(c5ccccc5)(C4)C2)C3)N1C (stereo not drawn) | – | –
15 | 2.89 | 4.2 | C1=NCC(C23CC4CC(CC(C5CCCCC5)(C4)C2)C3)N1 (stereo not drawn) | 2.5 | 7.22
16 | 2.16 | 2.77 | CC1=NCC(C23CC4CC(CC(C5CCCC5)(C4)C2)C3)N1 (stereo not drawn) | 1.6 | 3.56
17 | 1.82 | 2.41 | C1=NCC(C23CC4CC(CC(C5CCCC5)(C4)C2)C3)N1C1CCCCC1 (stereo not drawn) | 1.9 | 3.46
18 | 4.53 | 5.58 | CN1C(N)=NCC1C12CC3CC(CC(c4ccccc4)(C3)C1)C2 (stereo not drawn) | – | –
19 | > 132 | > 132 | NC12CC3CC(CC(C3)C1)C2 [AMANTADINE] | – | –
20 | 1.86 | 2.52 | NC1=NCC(C23CC4CC(CC(C5CCCCC5)(C4)C2)C3)N1 (stereo not drawn) | 10.2 | 19

Row | Structure (SMILES) | IC50 (Trypanosoma brucei) [µM] | IC90 (Trypanosoma brucei) [µM] | selectivity ratio [1] | IC50 (L6) [µM]
21 | CC(N)C12CC3CC(CC(C3)C1)C2 (stereo not drawn) [RIMANTADINE] | – | 14 | – | –
